Experimental data: ChEMBL document CHEMBL5154813 (Eur J Med Chem, 2022)
Active and inactive are the calls of the source. No cut-off for these calls is given here.

How the values were obtained:
[1] = biological target: T1, Peroxisome proliferator-activated receptor alpha (Homo sapiens, UniProt Q07869); experiment: Agonist activity at yeast Gal4-fused human PPARalpha LBD transfected in human HepG2 cells assessed as transactivation by measuring beta-galactosidase activity incubated for 20 hrs by luminometry; type: cell-based
T1 sequence (Q07869 whole entry): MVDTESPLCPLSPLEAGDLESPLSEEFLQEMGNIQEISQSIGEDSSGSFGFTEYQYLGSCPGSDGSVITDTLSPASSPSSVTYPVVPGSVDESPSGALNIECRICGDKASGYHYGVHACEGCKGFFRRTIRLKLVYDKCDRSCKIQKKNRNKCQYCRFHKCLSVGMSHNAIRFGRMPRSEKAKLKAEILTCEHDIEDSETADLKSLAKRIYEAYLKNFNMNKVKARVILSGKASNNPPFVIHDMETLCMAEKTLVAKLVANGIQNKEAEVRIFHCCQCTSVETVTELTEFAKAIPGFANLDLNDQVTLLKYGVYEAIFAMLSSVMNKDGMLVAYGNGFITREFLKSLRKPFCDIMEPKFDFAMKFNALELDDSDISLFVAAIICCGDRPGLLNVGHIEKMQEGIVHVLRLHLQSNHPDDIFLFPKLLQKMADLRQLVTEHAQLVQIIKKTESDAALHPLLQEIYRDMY

[2] = biological target: T2, Peroxisome proliferator-activated receptor alpha (Homo sapiens) (UniProt Q07869); experiment: Agonist activity at yeast Gal4-fused human PPARalpha LBD transfected in human HepG2 cells assessed as transactivation by measuring beta-galactosidase activity incubated for 20 hrs by luminometry relative to control; type: cell-based
T2 sequence (whole entry): T1 sequence (Q07869 whole entry)

[3] = biological target: T3, Peroxisome proliferator-activated receptor gamma (Homo sapiens, UniProt P37231); experiment: Agonist activity at yeast Gal4-fused human PPARgamma transfected in human HepG2 cells assessed as transactivation by measuring beta-galactosidase activity incubated for 20 hrs by luminometry; type: cell-based
T3 sequence (P37231 whole entry): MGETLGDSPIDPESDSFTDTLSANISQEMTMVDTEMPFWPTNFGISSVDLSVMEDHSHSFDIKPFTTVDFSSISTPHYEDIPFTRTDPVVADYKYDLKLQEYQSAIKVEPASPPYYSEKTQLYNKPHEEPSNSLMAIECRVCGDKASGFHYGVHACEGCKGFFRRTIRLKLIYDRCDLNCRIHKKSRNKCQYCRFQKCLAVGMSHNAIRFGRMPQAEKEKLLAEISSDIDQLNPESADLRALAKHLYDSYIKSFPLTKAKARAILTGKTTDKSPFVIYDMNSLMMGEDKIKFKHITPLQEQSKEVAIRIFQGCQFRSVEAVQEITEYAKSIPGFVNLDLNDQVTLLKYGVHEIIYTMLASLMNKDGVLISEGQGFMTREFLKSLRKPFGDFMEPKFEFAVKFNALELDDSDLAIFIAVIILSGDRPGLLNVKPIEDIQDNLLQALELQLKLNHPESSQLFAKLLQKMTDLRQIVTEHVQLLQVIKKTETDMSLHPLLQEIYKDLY

[4] = tested on: HepaRG; experiment: Reduction of lipid accumulation in oleic acid-induced steatosis in human HepaRG cells at 100 uM treated for 24 hrs by Oil Red O staining based microscopy; type: functional, cell-based
[5] = tested on: HepaRG; experiment: Reduction of lipid accumulation in oleic acid-induced steatosis in human HepaRG cells at 100 uM treated for 24 hrs by spectrophotometry; type: functional, cell-based
[6] = biological target: T4, Peroxisome proliferator-activated receptor delta (Homo sapiens, UniProt Q03181); experiment: Agonist activity at yeast Gal4-fused human PPARdelta transfected in human HepG2 cells assessed as transactivation by measuring beta-galactosidase activity incubated for 20 hrs by luminometry; type: cell-based
T4 sequence (Q03181 whole entry): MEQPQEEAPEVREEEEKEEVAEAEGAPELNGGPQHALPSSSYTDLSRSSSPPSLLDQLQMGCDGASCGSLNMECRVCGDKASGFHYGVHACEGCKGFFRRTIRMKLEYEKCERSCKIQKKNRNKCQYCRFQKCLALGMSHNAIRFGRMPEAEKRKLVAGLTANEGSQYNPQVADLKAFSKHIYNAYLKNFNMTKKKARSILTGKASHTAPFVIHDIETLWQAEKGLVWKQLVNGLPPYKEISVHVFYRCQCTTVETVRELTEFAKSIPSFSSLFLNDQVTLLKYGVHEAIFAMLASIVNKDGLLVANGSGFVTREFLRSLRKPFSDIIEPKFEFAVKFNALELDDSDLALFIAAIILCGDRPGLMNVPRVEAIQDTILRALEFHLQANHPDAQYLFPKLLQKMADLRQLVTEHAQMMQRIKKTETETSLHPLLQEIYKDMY

[7] = tested on: HepaRG; experiment: Reduction of lipid accumulation in oleic acid-induced steatosis in human HepaRG cells at 100 uM treated for 2 weeks with media replenishment along with compound and inducer for every 2 days by spectrophotometry; type: functional, cell-based
[8] = tested on: C2C12; experiment: Induction of 2-NBD-glucose uptake in mouse C2C12 cells at 25 uM incubated in starvation medium with replacement of fresh medium for every 24 hrs for 96 hrs followed by insulin stimulation for 30 mins followed by 2-NBD-glucose treatment for 3 hrs by flow cytometric analysis; type: functional, cell-based; conditions: time 99.5 hrs
[9] = biological target: T5, Peroxisome proliferator-activated receptor (Homo sapiens) (UniProt P37231+Q07869+Q03181); experiment: Agonist activity at PPAR in oleic acid-induced steatosis in human HepaRG cells assessed as increase in HMGCS2 mRNA levels at 100 uM treated for 2 weeks with media replenishment along with compound and inducer for every 2 days by RT-qPCR analysis; type: cell-based; conditions: filed as agonist
[10] = biological target: T5, Peroxisome proliferator-activated receptor (Homo sapiens); experiment: Agonist activity at PPAR in oleic acid-induced steatosis in human HepaRG cells assessed as increase in PDK4 mRNA levels at 100 uM treated for 24 hrs by RT-qPCR analysis; type: cell-based; conditions: filed as agonist
[11] = biological target: T5, Peroxisome proliferator-activated receptor (Homo sapiens); experiment: Agonist activity at PPAR in oleic acid-induced steatosis in human HepaRG cells assessed as increase in FABP1 mRNA levels at 100 uM treated for 24 hrs by RT-qPCR analysis; type: cell-based; conditions: filed as agonist
[12] = biological target: T5, Peroxisome proliferator-activated receptor (Homo sapiens); experiment: Agonist activity at PPAR in oleic acid-induced steatosis in human HepaRG cells assessed as increase in HMGCS2 mRNA levels at 100 uM treated for 24 hrs by RT-qPCR analysis; type: cell-based; conditions: filed as agonist
[13] = biological target: T5, Peroxisome proliferator-activated receptor (Homo sapiens); experiment: Agonist activity at PPAR in oleic acid-induced steatosis in human HepaRG cells assessed as increase in FGF21 mRNA levels at 100 uM treated for 24 hrs by RT-qPCR analysis; type: cell-based; conditions: filed as agonist
[14] = Permeability of compound in human Caco-2 cells; type: ADME, cell-based
[15] = tested on: C2C12; experiment: Induction of 2-NBD-glucose uptake in mouse C2C12 cells at 25 uM incubated in starvation medium with replacement of fresh medium for every 24 hrs for 96 hrs followed by 2-NBD-glucose treatment for 3 hrs by flow cytometric analysis; type: functional, cell-based; conditions: time 99.0 hrs
[16] = biological target: T5, Peroxisome proliferator-activated receptor (Homo sapiens); experiment: Agonist activity at PPAR in oleic acid-induced steatosis in human HepaRG cells assessed as increase in FABP1 mRNA levels at 100 uM treated for 2 weeks with media replenishment along with compound and inducer for every 2 days by RT-qPCR analysis; type: cell-based; conditions: filed as agonist
[17] = biological target: T5, Peroxisome proliferator-activated receptor (Homo sapiens); experiment: Agonist activity at PPAR in oleic acid-induced steatosis in human HepaRG cells assessed as increase in FGF21 mRNA levels at 100 uM treated for 2 weeks with media replenishment along with compound and inducer for every 2 days by RT-qPCR analysis; type: cell-based; conditions: filed as agonist
[18] = tested on: HepaRG; experiment: Reduction of lipid accumulation in oleic acid-induced steatosis in human HepaRG cells at 100 uM treated for 2 weeks with media replenishment along with compound and inducer for every 2 days by Oil Red O staining based microscopy; type: functional, cell-based
[19] = biological target: T5, Peroxisome proliferator-activated receptor (Homo sapiens); experiment: Agonist activity at PPAR in oleic acid-induced steatosis in human HepaRG cells assessed as increase in liver CPT1a mRNA levels at 100 uM treated for 2 weeks with media replenishment along with compound and inducer for every 2 days by RT-qPCR analysis; type: cell-based; conditions: filed as agonist
[20] = tested on: HepaRG; experiment: Reduction of lipid accumulation in oleic acid-induced steatosis in human HepaRG cells at 10 uM treated for 2 weeks with media replenishment along with compound and inducer for every 2 days by spectrophotometry; type: functional, cell-based
[21] = tested on: HepaRG; experiment: Reduction of lipid accumulation in oleic acid-induced steatosis in human HepaRG cells at 10 uM treated for 2 weeks with media replenishment along with compound and inducer for every 2 days by Oil Red O staining based microscopy; type: functional, cell-based
[22] = tested on: HepaRG; experiment: Reduction of lipid accumulation in oleic acid-induced steatosis in human HepaRG cells at 250 uM treated for 2 weeks with media replenishment along with compound and inducer for every 2 days by Oil Red O staining based microscopy; type: functional, cell-based
[23] = tested on: HepaRG; experiment: Reduction of lipid accumulation in oleic acid-induced steatosis in human HepaRG cells at 250 uM treated for 2 weeks with media replenishment along with compound and inducer for every 2 days by spectrophotometry; type: functional, cell-based

EC50 [1]	Emax ([2]; filed as agonist)	EC50 [3]	Compound	other results
0.135 µM	138%	–	O=C(NC(CSCc1ccc(-c2ccc(Cl)cc2)cc1)C(=O)O)OCc1ccccc1 (stereo not given)	–
1.45 µM	118%	25.7 µM	CC(C)(C)OC(=O)NC(CSCc1ccccc1)C(=O)O (stereo not given)	–
1.6 µM	108%	8.4 µM	CC(C)(C)OC(=O)N[C@@H](CSCc1ccc(C(=O)c2ccccc2)cc1)C(=O)O	Activity [4]: Active; Activity [5]: Active; EC50 [6]: 28 µM; Activity [7]: Active; Activity [8]: Active; Activity [9]: Active; Activity [10]: Active; Activity [11]: Active; Activity [12]: Active; Activity [13]: Active; permeability [14]: Permeable; Activity [15]: Active; Activity [16]: Active; Activity [17]: Active; Activity [18]: Active; Activity [19]: Active
–	–	–	O=C(NC(CSCc1ccc(C(=O)c2ccccc2)cc1)C(=O)O)c1ccccc1 (stereo not given)	Emax [2]: 21%
2.55 µM	148%	10.9 µM	O=C(Cc1ccccc1)NC(CSCc1ccccc1)C(=O)O (stereo not given)	–
9.1 µM	48%	–	CC(SCc1ccccc1)C(NC(=O)c1ccccc1)C(=O)O (stereo not given)	–
10 µM	52%	–	CC(C)(C)OC(=O)NC(COCc1ccc(Cc2ccccc2)cc1)C(=O)O (stereo not given)	–
7.2 µM	100%	13 µM	CC(C)(C)OC(=O)NC(COCc1ccc(-c2ccccc2)cc1)C(=O)O (stereo not given)	–
1.6 µM	83%	10.3 µM	CC(C)(C)OC(=O)NC(CSCc1ccc(C(=O)c2ccccc2)cc1)C(=O)O (stereo not given)	EC50 [6]: 37.1 µM
–	–	–	CN(CCOc1ccc(CC2SC(=O)NC2=O)cc1)c1ccccn1 (stereo not given)	Activity [20]: Active; Activity [21]: Active
–	–	–	CC(C)OC(=O)C(C)(C)Oc1ccc(C(=O)c2ccc(Cl)cc2)cc1	Activity [22]: Active; Activity [23]: Active
0.71 µM	108%	3.9 µM	CC(C)(C)OC(=O)NC(CSCc1ccc(-c2ccccc2)cc1)C(=O)O (stereo not given)	–
0.8 µM	94%	10.2 µM	CC(C)(C)OC(=O)NC(CSCc1ccc(/C=C/C(=O)c2ccccc2)cc1)C(=O)O (stereo not given)	–
12.1 µM	49%	20 µM	CC(C)(C)OC(=O)NC(COCc1ccc(C(=O)c2ccccc2)cc1)C(=O)O (stereo not given)	–
4.8 µM	103%	12.8 µM	CC(C)(C)OC(=O)NC(CSCc1ccc(C(=O)c2ccc([N+](=O)[O-])cc2)cc1)C(=O)O (stereo not given)	–
0.58 µM	64%	3.4 µM	CC(C)(C)OC(=O)NC(CSCc1ccc(Cc2ccccc2)cc1)C(=O)O (stereo not given)	–
1.9 µM	90%	7.9 µM	O=C(NC(CSCc1ccc(C(=O)c2ccccc2)cc1)C(=O)O)OCc1ccccc1 (stereo not given)	–
0.25 µM	77%	2.2 µM	CC(C)(C)OC(=O)NC(CSCc1ccc(C(=O)c2ccc(C(F)(F)F)cc2)cc1)C(=O)O (stereo not given)	–
0.37 µM	95%	3.2 µM	CC(C)(C)OC(=O)NC(CSCc1ccc(C(=O)c2ccc(Cl)cc2)cc1)C(=O)O (stereo not given)	–
0.016 µM	165%	–	O=C(NC(CSCc1ccc(Cc2ccc(Cl)cc2)cc1)C(=O)O)OCc1ccccc1 (stereo not given)	–
0.94 µM	89%	4.6 µM	Cc1ccc(C(=O)c2ccc(CSCC(NC(=O)OC(C)(C)C)C(=O)O)cc2)cc1 (stereo not given)	–
0.38 µM	99%	7.5 µM	COc1ccc(C(=O)c2ccc(CSCC(NC(=O)OC(C)(C)C)C(=O)O)cc2)cc1 (stereo not given)	–
